Laboratory results taken from ChEMBL document CHEMBL3885861, “Open TG-GATES”.

Organism: Rattus norvegicus
Test: Open TG-GATES - Regimen: Daily Repeat
Assay type: toxicity, organism-based, Sprague-Dawley
Design: regimen Daily Repeat, gender Male, age 6 weeks
Details: in vivo, po, 0 mg/kg, route gavage, dose level Control; for APTT / Bas / Eos / Fbg / Hb / Ht / Lym / MCH / MCHC / MCV / Mono / Neu / PT / Plat / RBC / Ret / WBC: tissue Blood; for KIDNEY_L / KIDNEY_R / KIDNEY_TOTAL: tissue Kidney; for LIVER: tissue Liver; for A/G / ALP / ALT / AST / BUN / CRE / Ca / Cl / DBIL / GLC / IP / K / LDH / Na / PL / RALB / TBIL / TC / TG / TP / gamma-GTP: tissue Plasma

CCCCNC(=O)NS(=O)(=O)c1ccc(C)cc1 [TOLBUTAMIDE]
TERMINAL_BW (72 h, time 3 day): 235.2 g
APTT (72 h, time 3 day): 16.5 s
Bas (72 h, time 3 day): 0.2%
Eos (72 h, time 3 day): 1%
Fbg (72 h, time 3 day): 315.4 mg/dL
Hb (72 h, time 3 day): 14 g/dL
Ht (72 h, time 3 day): 43.2%
Lym (72 h, time 3 day): 74.6%
MCH (72 h, time 3 day): 20.4 pg
MCHC (72 h, time 3 day): 32.4%
MCV (72 h, time 3 day): 63 fL
Mono (72 h, time 3 day): 2.2%
Neu (72 h, time 3 day): 21.6%
PT (72 h, time 3 day): 13 s
Plat (72 h, time 3 day): 112.3 x10_4/uL
RBC (72 h, time 3 day): 686.4 x10_4/ul
Ret (72 h, time 3 day): 6.8%
WBC (72 h, time 3 day): 101.6 x10_2/uL
KIDNEY_L (72 h, time 3 day): 1 g
KIDNEY_R (72 h, time 3 day): 1 g
KIDNEY_TOTAL (72 h, time 3 day): 2 g
LIVER (72 h, time 3 day): 10.6 g
A/G (72 h, time 3 day): 0.9
ALP (72 h, time 3 day): 1867 IU/L
ALT (72 h, time 3 day): 51 IU/L
AST (72 h, time 3 day): 75.2 IU/L
BUN (72 h, time 3 day): 15 mg/dL
CRE (72 h, time 3 day): 0.2 mg/dL
Ca (72 h, time 3 day): 11.3 mg/dL
Cl (72 h, time 3 day): 105.2 meq/L
DBIL (72 h, time 3 day): 0.014 mg/dL
GLC (72 h, time 3 day): 179 mg/dL
IP (72 h, time 3 day): 8.9 mg/dL
K (72 h, time 3 day): 4.1 meq/L
LDH (72 h, time 3 day): 64.4 IU/L
Na (72 h, time 3 day): 143.6 meq/L
PL (72 h, time 3 day): 149.8 mg/dL
RALB (72 h, time 3 day): 2.7 g/dL
TBIL (72 h, time 3 day): 0.066 mg/dL
TC (72 h, time 3 day): 79 mg/dL
TG (72 h, time 3 day): 79.2 mg/dL
TP (72 h, time 3 day): 5.7 g/dL
gamma-GTP (72 h, time 3 day): 1 IU/L
TERMINAL_BW ([…], time 7 day): 272.6 g
TERMINAL_BW ([…], time 14 day): 338.7 g
TERMINAL_BW ([…], time 28 day): 414.9 g
APTT ([…], time 7 day): 17 s
Bas ([…], time 7 day): 0.4%
Eos ([…], time 7 day): 1%
Fbg ([…], time 7 day): 274.8 mg/dL
Hb ([…], time 7 day): 13.6 g/dL
Ht ([…], time 7 day): 41%
Lym ([…], time 7 day): 80%
MCH ([…], time 7 day): 20.8 pg
MCHC ([…], time 7 day): 33.3%
MCV ([…], time 7 day): 62.4 fL
Mono ([…], time 7 day): 2.6%
Neu ([…], time 7 day): 15.6%
PT ([…], time 7 day): 13 s
Plat ([…], time 7 day): 127.5 x10_4/uL
RBC ([…], time 7 day): 657.4 x10_4/ul
Ret ([…], time 7 day): 5.7%
WBC ([…], time 7 day): 127.9 x10_2/uL
APTT ([…], time 14 day): 17.6 s
Bas ([…], time 14 day): 0.2%
Eos ([…], time 14 day): 1%
Fbg ([…], time 14 day): 284 mg/dL
Hb ([…], time 14 day): 14.4 g/dL
Ht ([…], time 14 day): 43.7%
Lym ([…], time 14 day): 78.4%
MCH ([…], time 14 day): 19.9 pg
MCHC ([…], time 14 day): 32.8%
MCV ([…], time 14 day): 60.7 fL
Mono ([…], time 14 day): 1.8%
Neu ([…], time 14 day): 18%
PT ([…], time 14 day): 13 s
Plat ([…], time 14 day): 124.7 x10_4/uL
RBC ([…], time 14 day): 721.4 x10_4/ul
Ret ([…], time 14 day): 4.4%
WBC ([…], time 14 day): 108 x10_2/uL
APTT ([…], time 28 day): 18.4 s
Bas ([…], time 28 day): 0.2%
Eos ([…], time 28 day): 1%
Fbg ([…], time 28 day): 277 mg/dL
Hb ([…], time 28 day): 15.8 g/dL
Ht ([…], time 28 day): 47.1%
Lym ([…], time 28 day): 80.2%
MCH ([…], time 28 day): 19.4 pg
MCHC ([…], time 28 day): 33.4%
MCV ([…], time 28 day): 58 fL
Mono ([…], time 28 day): 2%
Neu ([…], time 28 day): 16%
PT ([…], time 28 day): 13.6 s
Plat ([…], time 28 day): 107.1 x10_4/uL
RBC ([…], time 28 day): 813.4 x10_4/ul
Ret ([…], time 28 day): 2.3%
WBC ([…], time 28 day): 117.4 x10_2/uL
KIDNEY_L ([…], time 7 day): 1.1 g
KIDNEY_R ([…], time 7 day): 1.1 g
KIDNEY_TOTAL ([…], time 7 day): 2.2 g
KIDNEY_L ([…], time 14 day): 1.2 g
KIDNEY_R ([…], time 14 day): 1.3 g
KIDNEY_TOTAL ([…], time 14 day): 2.5 g
KIDNEY_L ([…], time 28 day): 1.5 g
KIDNEY_R ([…], time 28 day): 1.5 g
KIDNEY_TOTAL ([…], time 28 day): 2.9 g
LIVER ([…], time 7 day): 12.8 g
LIVER ([…], time 14 day): 15.3 g
LIVER ([…], time 28 day): 15.9 g
A/G ([…], time 7 day): 0.9
ALP ([…], time 7 day): 1890.2 IU/L
ALT ([…], time 7 day): 43.2 IU/L
AST ([…], time 7 day): 69.2 IU/L
BUN ([…], time 7 day): 18.2 mg/dL
CRE ([…], time 7 day): 0.2 mg/dL
Ca ([…], time 7 day): 10.9 mg/dL
Cl ([…], time 7 day): 103.8 meq/L
DBIL ([…], time 7 day): 0.012 mg/dL
GLC ([…], time 7 day): 189.4 mg/dL
IP ([…], time 7 day): 8.1 mg/dL
K ([…], time 7 day): 4.1 meq/L
LDH ([…], time 7 day): 64.8 IU/L
Na ([…], time 7 day): 142.2 meq/L
PL ([…], time 7 day): 148.8 mg/dL
RALB ([…], time 7 day): 2.6 g/dL
TBIL ([…], time 7 day): 0.062 mg/dL
TC ([…], time 7 day): 67.2 mg/dL
TG ([…], time 7 day): 139.8 mg/dL
TP ([…], time 7 day): 5.6 g/dL
gamma-GTP ([…], time 7 day): 0.8 IU/L
A/G ([…], time 14 day): 0.8
ALP ([…], time 14 day): 1297.4 IU/L
ALT ([…], time 14 day): 37 IU/L
AST ([…], time 14 day): 66.4 IU/L
BUN ([…], time 14 day): 16.6 mg/dL
CRE ([…], time 14 day): 0.2 mg/dL
Ca ([…], time 14 day): 11 mg/dL
Cl ([…], time 14 day): 104.2 meq/L
DBIL ([…], time 14 day): 0.012 mg/dL
GLC ([…], time 14 day): 185.6 mg/dL
IP ([…], time 14 day): 7.1 mg/dL
K ([…], time 14 day): 3.9 meq/L
LDH ([…], time 14 day): 58.8 IU/L
Na ([…], time 14 day): 142.6 meq/L
PL ([…], time 14 day): 149 mg/dL
RALB ([…], time 14 day): 2.7 g/dL
TBIL ([…], time 14 day): 0.056 mg/dL
TC ([…], time 14 day): 72.8 mg/dL
TG ([…], time 14 day): 131.2 mg/dL
TP ([…], time 14 day): 5.8 g/dL
gamma-GTP ([…], time 14 day): 1 IU/L
A/G ([…], time 28 day): 0.8
ALP ([…], time 28 day): 1151.4 IU/L
ALT ([…], time 28 day): 40.6 IU/L
AST ([…], time 28 day): 62 IU/L
BUN ([…], time 28 day): 17 mg/dL
CRE ([…], time 28 day): 0.3 mg/dL
Ca ([…], time 28 day): 10.8 mg/dL
Cl ([…], time 28 day): 105.2 meq/L
DBIL ([…], time 28 day): 0.014 mg/dL
GLC ([…], time 28 day): 186.6 mg/dL
IP ([…], time 28 day): 6.7 mg/dL
K ([…], time 28 day): 4 meq/L
LDH ([…], time 28 day): 52 IU/L
Na ([…], time 28 day): 143.2 meq/L
PL ([…], time 28 day): 162.4 mg/dL
RALB ([…], time 28 day): 2.8 g/dL
TBIL ([…], time 28 day): 0.062 mg/dL
TC ([…], time 28 day): 78 mg/dL
TG ([…], time 28 day): 170 mg/dL
TP ([…], time 28 day): 6.3 g/dL
gamma-GTP ([…], time 28 day): 1.2 IU/L
